Reference: patent US7632830B2, “Lactam compounds and pharmaceutical use thereof” (Ajinomoto Co., Inc., priority 2000, dated 2009)

Test system: adipose cells of rats
Experiment: Evaluation of the sugar-transporting activity (2-[14C(U)]-deoxy-D-glucose incorporation)
Format: cell-based
Conditions: concentration having a reinforcing effect corresponding to 50% of the reinforcing effect of insulin (100%); rat adipose cells
Experimental: After the decapitation and venesection of 6 male Wistar rats (body weight: 150 to 200 g), an incision was made in the abdomen of each rat to extract 6 g in total of epididymal adipose tissues. The tissues were finely cut into 2 mm×2 mm pieces in 6 ml of KRH (Krebs-Ringer Hepes, composition: 130 mM of sodium chloride, 4.7 mM of potassium chloride, 1.2 mM of potassium dihydrogenphosphate, 1.2 mM of magnesium sulfate, 1 mM of calcium chloride and 25 mM of Hepes, pH=7.6) containing 5% of BSA (bovine serum albumin). 24 mg of collagenase (type I) was added thereto and the digestion treatment was conducted for about 40 minutes to obtain about 6 ml of isolated adipose cells. The collagenase was removed by the buffer exchange. 2% BSA/KRH solution was added to the residue for the re-suspension to obtain 45 ml of an adipose cell suspension.
The sugar-transporting activity of the compounds of the present invention was evaluated with reference to a method described in a literature [Annual Review of Biochemistry, Vol. 55, p. 1059 (1986)]. In the test, 200 μl of the adipose cell suspension was poured in each polystyrene test tube, 100 μl of the solution of the test substance (by dilution of 10 mg/ml substance dimethyl sulfoxide solution with KRH) was added thereto, and the obtained mixture was shaken and then cultured at 37° C. for 30 minutes.
The sugar-transporting activity was evaluated by measuring the quantity of 2-[^14C(U)]-deoxy-D-glucose incorporated per a unit time. Namely, 2-[^14C(U)]-deoxy-D-glucose was added to the adipose cell suspension after the pre-culture (the final concentration: 0.5 μCi/sample). 5 minutes after, cytochalasin B (final concentration: 10 μM) was added to the mixture to terminate the sugar transportation. After forming a dinonyl phthalate layer, the obtained mixture was centrifuged to separate the adipose cells from the buffer. The quantity of 2-[^14C(U)]-deoxy-D-glucose contained in the adipose cell layer was determined with a liquid scintillation counter to determine the quantity of the incorporated sugar. In this evaluation system, when insulin (100 nM) having the effect of increasing the sugar transportation was used, the effect was about 7 times as high as that obtained in the insulin-free control group.
The results of the evaluation of the sugar-transporting activity obtained by using 100 μg/ml of each compound of the present invention are shown in Table 6. The sugar transporting activity in Table 6 was evaluated on the basis of the reinforcing effect of insulin (100 nM). […] The symbols in Table 6 are as follows: • No: Example No., and • A: sugar transporting activity.
The results of the evaluation of the sugar-transporting activity obtained by using each compound of the present invention are shown in Table 7. The sugar transporting activity in Table 7 was determined in terms of the concentration (EC50: μg/ml) of a test compound, having a reinforcing effect corresponding to 50% on the basis of the reinforcing effect of insulin having a reinforcing effect of 100%.

A: sugar transporting activity (EC50) | Compound
18 µg/mL | COc1ccccc1[C@@H]1C2=C(CNC2=O)N[C@@H]2CCCC[C@H]2N1C(=O)c1ccncc1 [Example 78]
8.6 µg/mL | COc1ccccc1[C@@H]1C2=C(CNC2=O)N[C@@H]2CCCC[C@H]2N1C(=O)c1cnccn1 [Example 79]
6 µg/mL | COC(=O)N1[C@@H]2CCCC[C@H]2NC2=C(C(=O)NC2)[C@H]1c1ccccc1OC [Example 80]
4.2 µg/mL | CCOC(=O)N1[C@@H]2CCCC[C@H]2NC2=C(C(=O)NC2)[C@H]1c1ccccc1OC [Example 81]
6 µg/mL | COc1ccccc1[C@@H]1C2=C(CNC2=O)N[C@@H]2CCCC[C@H]2N1C(=O)OCc1ccccc1 [Example 82]
11 µg/mL | COc1ccccc1[C@@H]1C2=C(CNC2=O)N[C@@H]2CCCC[C@H]2N1C(=O)Oc1ccccc1 [Example 83]
3.6 µg/mL | CCNC(=O)N1[C@@H]2CCCC[C@H]2NC2=C(C(=O)NC2)[C@H]1c1ccccc1OC [Example 84]
7 µg/mL | CCCNC(=O)N1[C@@H]2CCCC[C@H]2NC2=C(C(=O)NC2)[C@H]1c1ccccc1OC [Example 85]
15 µg/mL | CCOc1ccccc1[C@@H]1C2=C(CNC2=O)N[C@@H]2CCCC[C@H]2N1C(C)=O [Example 87]
1.9 µg/mL | CCOc1ccccc1[C@@H]1C2=C(CNC2=O)N[C@@H]2CCCC[C@H]2N1C(=O)CC [Example 88]
1.3 µg/mL | CCCC(=O)N1[C@@H]2CCCC[C@H]2NC2=C(C(=O)NC2)[C@H]1c1ccccc1OCC [Example 89]
5 µg/mL | CCOc1ccccc1[C@@H]1C2=C(CNC2=O)N[C@@H]2CCCC[C@H]2N1C(=O)C(F)(F)F [Example 90]
13 µg/mL | CCOc1ccccc1[C@@H]1C2=C(CNC2=O)N[C@@H]2CCCC[C@H]2N1C(=O)COC(C)=O [Example 91]
3.8 µg/mL | CCOc1ccccc1[C@@H]1C2=C(CNC2=O)N[C@@H]2CCCC[C@H]2N1C(=O)CO [Example 92]
3.6 µg/mL | CCOc1ccccc1[C@@H]1C2=C(CNC2=O)N[C@@H]2CCCC[C@H]2N1C(=O)COC [Example 93]
4 µg/mL | CCOCC(=O)N1[C@@H]2CCCC[C@H]2NC2=C(C(=O)NC2)[C@H]1c1ccccc1OCC [Example 94]
1.5 µg/mL | CCOc1ccccc1[C@@H]1C2=C(CNC2=O)N[C@@H]2CCCC[C@H]2N1C(=O)OC [Example 95]
7 µg/mL | CCOC(=O)N1[C@@H]2CCCC[C@H]2NC2=C(C(=O)NC2)[C@H]1c1ccccc1OCC [Example 96]
12 µg/mL | CCNC(=O)N1[C@@H]2CCCC[C@H]2NC2=C(C(=O)NC2)[C@H]1c1ccccc1OCC [Example 97]
2 µg/mL | CCC(=O)N1[C@@H]2CCCC[C@H]2NC2=C(C(=O)NC2)[C@H]1c1ccccc1OC(C)C [Example 99]
2 µg/mL | CCOCC(=O)N1[C@@H]2CCCC[C@H]2NC2=C(C(=O)NC2)[C@H]1c1ccccc1OC(C)C [Example 100]
4.8 µg/mL | COC(=O)N1[C@@H]2CCCC[C@H]2NC2=C(C(=O)NC2)[C@H]1c1ccccc1OC(C)C [Example 101]
4 µg/mL | CCOCC(=O)N1[C@@H]2CCCC[C@H]2NC2=C(C(=O)NC2)[C@H]1c1ccccc1OCc1ccccc1 [Example 102]
3.6 µg/mL | CC(=O)N1[C@@H]2CCCC[C@H]2NC2=C(C(=O)NC2)[C@H]1c1ccccc1OCc1ccccc1 [Example 103]
1 µg/mL | CCOCC(=O)N1[C@@H]2CCCC[C@H]2NC2=C(C(=O)NC2)[C@H]1c1ccccc1O [Example 104]
3.7 µg/mL | CC(=O)N1[C@@H]2CCCC[C@H]2NC2=C(C(=O)NC2)[C@H]1c1ccccc1O [Example 105]
0.82 µg/mL | CCC(=O)N1[C@@H]2CCCC[C@H]2NC2=C(C(=O)NC2)[C@H]1c1ccc(F)cc1OC [Example 107]

A: sugar transporting activity (EC50) | Compound
7.8 µg/mL | CCOCC(=O)N1[C@@H]2CCCC[C@H]2NC2=C(C(=O)NC2)[C@H]1c1ccc(F)cc1OC [Example 108]
8 µg/mL | COc1cc(F)ccc1[C@@H]1C2=C(CNC2=O)N[C@@H]2CCCC[C@H]2N1C(C)=O [Example 109]
6 µg/mL | COc1cc(Cl)ccc1[C@@H]1C2=C(CNC2=O)N[C@@H]2CCCC[C@H]2N1C(C)=O [Example 110]
10 µg/mL | COc1ccc(F)cc1[C@@H]1C2=C(CNC2=O)N[C@@H]2CCCC[C@H]2N1C(C)=O [Example 113]
12 µg/mL | COc1cccc([C@@H]2C3=C(CNC3=O)N[C@@H]3CCCC[C@H]3N2C(C)=O)c1OC [Example 114]
10 µg/mL | COc1ccc([C@@H]2C3=C(CNC3=O)N[C@@H]3CCCC[C@H]3N2C(C)=O)c(OC)c1 [Example 115]
6 µg/mL | Cc1ccccc1[C@@H]1C2=C(CNC2=O)N[C@@H]2CCCC[C@H]2N1C(=O)C(F)(F)F [Example 117]
2 µg/mL | CCC(=O)N1[C@@H]2CCCC[C@H]2NC2=C(C(=O)NC2)[C@H]1c1ccccc1C [Example 118]
4 µg/mL | CCOCC(=O)N1[C@@H]2CCCC[C@H]2NC2=C(C(=O)NC2)[C@H]1c1ccccc1C [Example 119]
8 µg/mL | CC(=O)OCC(=O)N1[C@@H]2CCCC[C@H]2NC2=C(C(=O)NC2)[C@H]1c1ccccc1C [Example 120]
2.5 µg/mL | Cc1ccccc1[C@@H]1C2=C(CNC2=O)N[C@@H]2CCCC[C@H]2N1C(=O)CO [Example 121]
6 µg/mL | COCC(=O)N1[C@@H]2CCCC[C@H]2NC2=C(C(=O)NC2)[C@H]1c1ccccc1C [Example 122]
5 µg/mL | CC(=O)N1[C@@H]2CCCC[C@H]2NC2=C(C(=O)NC2)[C@H]1c1ccccc1C [Example 123]
7 µg/mL | CCOC(=O)N1[C@@H]2CCCC[C@H]2NC2=C(C(=O)NC2)[C@H]1c1ccccc1C [Example 124]
5 µg/mL | CCCC(=O)N1[C@@H]2CCCC[C@H]2NC2=C(C(=O)NC2)[C@H]1c1ccccc1CC [Example 126]
2.2 µg/mL | CCC(=O)N1[C@@H]2CCCC[C@H]2NC2=C(C(=O)NC2)[C@H]1c1ccccc1CC [Example 127]
5.4 µg/mL | CCOCC(=O)N1[C@@H]2CCCC[C@H]2NC2=C(C(=O)NC2)[C@H]1c1ccccc1CC [Example 129]
6 µg/mL | CCc1ccccc1[C@@H]1C2=C(CNC2=O)N[C@@H]2CCCC[C@H]2N1C(=O)COC [Example 130]
4 µg/mL | CCc1ccccc1[C@@H]1C2=C(CNC2=O)N[C@@H]2CCCC[C@H]2N1C(C)=O [Example 131]
4 µg/mL | CCc1ccccc1[C@@H]1C2=C(CNC2=O)N[C@@H]2CCCC[C@H]2N1C(=O)OC [Example 132]
0.5 µg/mL | O=C1NCC2=C1[C@@H](c1ccccc1Br)N(C(=O)CC(F)(F)F)[C@@H]1CCCC[C@H]1N2 [Example 134]
1.5 µg/mL | CCC(=O)N1[C@@H]2CCCC[C@H]2NC2=C(C(=O)NC2)[C@H]1c1ccccc1Br [Example 135]
1.5 µg/mL | COC(=O)CC(=O)N1[C@@H]2CCCC[C@H]2NC2=C(C(=O)NC2)[C@H]1c1ccccc1Br [Example 136]
8.6 µg/mL | CCOCC(=O)N1[C@@H]2CCCC[C@H]2NC2=C(C(=O)NC2)[C@H]1c1ccccc1Br [Example 137]
6 µg/mL | COCC(=O)N1[C@@H]2CCCC[C@H]2NC2=C(C(=O)NC2)[C@H]1c1ccccc1Br [Example 138]
6 µg/mL | CC(=O)N1[C@@H]2CCCC[C@H]2NC2=C(C(=O)NC2)[C@H]1c1ccccc1Br [Example 139]

Compound | A: sugar transporting activity (EC50)
CC(=O)N1[C@@H]2CCCC[C@H]2NC2=C(C(=O)NC2)[C@H]1c1ccccc1OC(C)C [Example 98] | 14 µg/mL
